Results taken from US20220347171A1, “TREATMENT OF PRURIGO NODULARIS” (TREVI THERAPEUTICS, INC., priority 2016, published 2022).
Structures can show the parent of a compound that is named as a salt.

Tested on: prurigo nodularis patients
Test: TR03ext (Example 3): PAS prurigo lesions with excoriations/crusts; Stage 0 0%, Stage 1 1%-25%, Stage 2 26%-50%, Stage 3 51%-75%, Stage 4 76%-100%
Type: in vivo, human
From the text: In some embodiments, after the treatment the patient experiences a substantial reduction of itch that is characterized by at least one category/stage improvement in Prurigo Activity Score (PAS). In particular embodiments, after the treatment the patient experiences a reduction of itch that results in at least one category/stage improvement in Prurigo Activity Score (PAS) domains of number of prurigo lesions, prurigo lesions with excoriations/crusts and/or healed prurigo lesions. The PAS consists of 7 qualitative and quantitative measurements related to the examination of the skin. Type, number, distribution, affected body parts, and quantitative number of lesions in a representative body part are documented. The biggest lesion and the most representative lesion are monitored with documentation of height and area measurements. Prurigo lesion activity is recorded as a percentages based on their stage (0-4). In some embodiments, number measurements of lesions on the body have four numerical categories: 0, 1-19, 20-100 and >100. In some embodiments, prurigo lesions with excoriations/crusts have five categories: Stage 4 (76%-100%), Stage 3 (51%-75%), Stage 2 (26%-50%), Stage 1 (1-25%) and Stage 0 (0%). In some embodiments, healed prurigo lesions have five categories: Stage 4 (0-24%), Stage 3 (25-49%), Stage 2 (50-74%), Stage 1 (75%-99%), Stage 0 (100%).
This clinical study was a Phase 2 Open Label Extension Study (clinical study TR03ext) of the randomized, double-blind, 3-parallel arm, placebo controlled dose ranging study described in Example 2. All those subjects who were randomized, and then completed Example 2 study, were eligible to participate in the Extension Study.
The primary endpoint was a description of the overall incidence and nature of Treatment-Emergent AEs (TEAES) during weeks 5-50 of the study. Exploratory efficacy endpoints included Change from Baseline patient reported outcome measures of Worst itch NRS, itchy VRS and ItchyQoL, by Treatment Period study visit and Baseline NRS score. There was also an assessment of any potential skin lesion changes over time using the metrics of the PAS.
Patients in Extension Study were titrated over a dose range of 30 mg QD to 180 mg BID based on tolerability. The selected dose range was based on Example 2 study whereby patients were titrated from a 30 mg QD dose either to 30 mg BID, 60 mg BID, 90 mg BID, 120 mg BID or a 180 mg BID dose. The highest dose proposed was 180 mg BID (360 mg daily dose), and was well below the highest recommended daily treatment of 160 mg IV (equivalent to 960 mg oral) for the current marketed parenteral administered product.
Table 15, 16 and 17 display excoriations/crusts lesion PAS data for subjects who received treatment for at least 6 months, subjects who received treatment for at least 9 months and subjects who completed 50 weeks of treatment in the study, respectively. The status of the prurigo lesions with excoriations/crusts is reported as percentages based on their stage (0-4) using a grading system: Stage 0 (0% excoriations/crusts); Stage 1 (1%-25% excoriations/crusts); Stage 2 (26%-50% excoriations/crusts); Stage 3 (51%-75% excoriations/crusts); Stage 4: (76%-100% excoriations/crusts). Thus, the higher the stage, the more severe is the prurigo skin pathology.

[1] = treatment for at least 6 months
[2] = treatment for at least 9 months

## Oc1ccc2c3c1OC1[C@@H](O)CC[C@@]4(O)[C@@H](C2)N(CC2CCC2)CC[C@]314 (stereo partly drawn) [Nalbuphine, 17-(cyclobutylmethyl)-4,5α-epoxymorphinian-3, 6α, 14-triol, hydrochloride]
After 6 months, 13/16
  Subjects with at least one category improvement (lesser stage) in the percentage of excoriations/crust lesions (PAS): 81.2%
After 9 months, 9/13
  Subjects with at least one category improvement (lesser stage) in the percentage of excoriations/crust lesions (PAS): 69.2%
After 12 months, 8/12
  Subjects with at least one category improvement (lesser stage) in the percentage of excoriations/crust lesions (PAS): 66.6%
Treatment for 50 weeks
  Excoriated/Crusts PAS Category Shift: Baseline Stage 0 to Last Observed Stage 0: 1 (7.1%) Number (%) of Subjects
  Excoriated/Crusts PAS Category Shift: Baseline Stage 0 to Last Observed Stage 1: 0 Number (%) of Subjects
  Excoriated/Crusts PAS Category Shift: Baseline Stage 0 to Last Observed Stage 2: 0 Number (%) of Subjects
  Excoriated/Crusts PAS Category Shift: Baseline Stage 0 to Last Observed Stage 3: 0 Number (%) of Subjects
  Excoriated/Crusts PAS Category Shift: Baseline Stage 0 to Last Observed Stage 4: 0 Number (%) of Subjects
  Excoriated/Crusts PAS Category Shift: Baseline Stage 1 to Last Observed Stage 0: 0 Number (%) of Subjects
  Excoriated/Crusts PAS Category Shift: Baseline Stage 1 to Last Observed Stage 1: 1 (7.7%) Number (%) of Subjects
  Excoriated/Crusts PAS Category Shift: Baseline Stage 1 to Last Observed Stage 2: 0 Number (%) of Subjects
  Excoriated/Crusts PAS Category Shift: Baseline Stage 1 to Last Observed Stage 3: 0 Number (%) of Subjects
  Excoriated/Crusts PAS Category Shift: Baseline Stage 1 to Last Observed Stage 4: 1 (7.7%) Number (%) of Subjects
  Excoriated/Crusts PAS Category Shift: Baseline Stage 2 to Last Observed Stage 0: 0 Number (%) of Subjects
  Excoriated/Crusts PAS Category Shift: Baseline Stage 2 to Last Observed Stage 1: 5 (38.5%) Number (%) of Subjects
  Excoriated/Crusts PAS Category Shift: Baseline Stage 2 to Last Observed Stage 2: 0 Number (%) of Subjects
  Excoriated/Crusts PAS Category Shift: Baseline Stage 2 to Last Observed Stage 3: 0 Number (%) of Subjects
  Excoriated/Crusts PAS Category Shift: Baseline Stage 2 to Last Observed Stage 4: 0 Number (%) of Subjects
  Excoriated/Crusts PAS Category Shift: Baseline Stage 3 to Last Observed Stage 0: 0 Number (%) of Subjects
  Excoriated/Crusts PAS Category Shift: Baseline Stage 3 to Last Observed Stage 1: 0 Number (%) of Subjects
  Excoriated/Crusts PAS Category Shift: Baseline Stage 3 to Last Observed Stage 2: 2 (15.4%) Number (%) of Subjects
  Excoriated/Crusts PAS Category Shift: Baseline Stage 3 to Last Observed Stage 3: 1 (7.7%) Number (%) of Subjects
  Excoriated/Crusts PAS Category Shift: Baseline Stage 3 to Last Observed Stage 4: 0 Number (%) of Subjects
  Excoriated/Crusts PAS Category Shift: Baseline Stage 4 to Last Observed Stage 0: 1 (7.7%) Number (%) of Subjects
  Excoriated/Crusts PAS Category Shift: Baseline Stage 4 to Last Observed Stage 1: 0 Number (%) of Subjects
  Excoriated/Crusts PAS Category Shift: Baseline Stage 4 to Last Observed Stage 2: 0 Number (%) of Subjects
  Excoriated/Crusts PAS Category Shift: Baseline Stage 4 to Last Observed Stage 3: 0 Number (%) of Subjects
  Excoriated/Crusts PAS Category Shift: Baseline Stage 4 to Last Observed Stage 4: 1 (7.7%) Number (%) of Subjects
  Excoriated/Crusts PAS: Last Observed PAS Result Stage 0: 2 (15.4) Number (%) of Subjects
  Excoriated/Crusts PAS: Last Observed PAS Result Stage 1: 6 (46.2) Number (%) of Subjects
  Excoriated/Crusts PAS: Last Observed PAS Result Stage 2: 2 (15.4) Number (%) of Subjects
  Excoriated/Crusts PAS: Last Observed PAS Result Stage 3: 1 (7.7) Number (%) of Subjects
  Excoriated/Crusts PAS: Last Observed PAS Result Stage 4: 2 (15.4) Number (%) of Subjects
[1]
  Excoriated/Crusts PAS Category Shift: Baseline Stage 0 to Last Observed Stage 0: 1 (5.9%) Number (%) of Subjects
  Excoriated/Crusts PAS Category Shift: Baseline Stage 0 to Last Observed Stage 1: 0 Number (%) of Subjects
  Excoriated/Crusts PAS Category Shift: Baseline Stage 0 to Last Observed Stage 2: 0 Number (%) of Subjects
  Excoriated/Crusts PAS Category Shift: Baseline Stage 0 to Last Observed Stage 3: 0 Number (%) of Subjects
  Excoriated/Crusts PAS Category Shift: Baseline Stage 0 to Last Observed Stage 4: 0 Number (%) of Subjects
  Excoriated/Crusts PAS Category Shift: Baseline Stage 1 to Last Observed Stage 0: 0 Number (%) of Subjects
  Excoriated/Crusts PAS Category Shift: Baseline Stage 1 to Last Observed Stage 1: 1 (5.9%) Number (%) of Subjects
  Excoriated/Crusts PAS Category Shift: Baseline Stage 1 to Last Observed Stage 2: 0 Number (%) of Subjects
  Excoriated/Crusts PAS Category Shift: Baseline Stage 1 to Last Observed Stage 3: 0 Number (%) of Subjects
  Excoriated/Crusts PAS Category Shift: Baseline Stage 1 to Last Observed Stage 4: 1 (5.9%) Number (%) of Subjects
  Excoriated/Crusts PAS Category Shift: Baseline Stage 2 to Last Observed Stage 0: 1 (5.9%) Number (%) of Subjects
  Excoriated/Crusts PAS Category Shift: Baseline Stage 2 to Last Observed Stage 1: 5 (29.4%) Number (%) of Subjects
  Excoriated/Crusts PAS Category Shift: Baseline Stage 2 to Last Observed Stage 2: 0 Number (%) of Subjects
  Excoriated/Crusts PAS Category Shift: Baseline Stage 2 to Last Observed Stage 3: 0 Number (%) of Subjects
  Excoriated/Crusts PAS Category Shift: Baseline Stage 2 to Last Observed Stage 4: 0 Number (%) of Subjects
  Excoriated/Crusts PAS Category Shift: Baseline Stage 3 to Last Observed Stage 0: 0 Number (%) of Subjects
  Excoriated/Crusts PAS Category Shift: Baseline Stage 3 to Last Observed Stage 1: 1 (5.9%) Number (%) of Subjects
  Excoriated/Crusts PAS Category Shift: Baseline Stage 3 to Last Observed Stage 2: 2 (11.8%) Number (%) of Subjects
  Excoriated/Crusts PAS Category Shift: Baseline Stage 3 to Last Observed Stage 3: 1 (5.9%) Number (%) of Subjects
  Excoriated/Crusts PAS Category Shift: Baseline Stage 3 to Last Observed Stage 4: 0 Number (%) of Subjects
  Excoriated/Crusts PAS Category Shift: Baseline Stage 4 to Last Observed Stage 0: 1 (5.9%) Number (%) of Subjects
  Excoriated/Crusts PAS Category Shift: Baseline Stage 4 to Last Observed Stage 1: 2 (11.8%) Number (%) of Subjects
  Excoriated/Crusts PAS Category Shift: Baseline Stage 4 to Last Observed Stage 2: 0 Number (%) of Subjects
  Excoriated/Crusts PAS Category Shift: Baseline Stage 4 to Last Observed Stage 3: 0 Number (%) of Subjects
  Excoriated/Crusts PAS Category Shift: Baseline Stage 4 to Last Observed Stage 4: 1 (5.9%) Number (%) of Subjects
  Excoriated/Crusts PAS: Last Observed PAS Result Stage 0: 3 (17.6) Number (%) of Subjects
  Excoriated/Crusts PAS: Last Observed PAS Result Stage 1: 9 (52.9) Number (%) of Subjects
  Excoriated/Crusts PAS: Last Observed PAS Result Stage 2: 2 (11.8) Number (%) of Subjects
  Excoriated/Crusts PAS: Last Observed PAS Result Stage 3: 1 (5.9) Number (%) of Subjects
  Excoriated/Crusts PAS: Last Observed PAS Result Stage 4: 2 (11.8) Number (%) of Subjects
[2]
  Excoriated/Crusts PAS Category Shift: Baseline Stage 0 to Last Observed Stage 0: 1 (7.1%) Number (%) of Subjects
  Excoriated/Crusts PAS Category Shift: Baseline Stage 0 to Last Observed Stage 1: 0 Number (%) of Subjects
  Excoriated/Crusts PAS Category Shift: Baseline Stage 0 to Last Observed Stage 2: 0 Number (%) of Subjects
  Excoriated/Crusts PAS Category Shift: Baseline Stage 0 to Last Observed Stage 3: 0 Number (%) of Subjects
  Excoriated/Crusts PAS Category Shift: Baseline Stage 0 to Last Observed Stage 4: 0 Number (%) of Subjects
  Excoriated/Crusts PAS Category Shift: Baseline Stage 1 to Last Observed Stage 0: 0 Number (%) of Subjects
  Excoriated/Crusts PAS Category Shift: Baseline Stage 1 to Last Observed Stage 1: 1 (7.1%) Number (%) of Subjects
  Excoriated/Crusts PAS Category Shift: Baseline Stage 1 to Last Observed Stage 2: 0 Number (%) of Subjects
  Excoriated/Crusts PAS Category Shift: Baseline Stage 1 to Last Observed Stage 3: 0 Number (%) of Subjects
  Excoriated/Crusts PAS Category Shift: Baseline Stage 1 to Last Observed Stage 4: 1 (7.1%) Number (%) of Subjects
  Excoriated/Crusts PAS Category Shift: Baseline Stage 2 to Last Observed Stage 0: 0 Number (%) of Subjects
  Excoriated/Crusts PAS Category Shift: Baseline Stage 2 to Last Observed Stage 1: 5 (35.7%) Number (%) of Subjects
  Excoriated/Crusts PAS Category Shift: Baseline Stage 2 to Last Observed Stage 2: 0 Number (%) of Subjects
  Excoriated/Crusts PAS Category Shift: Baseline Stage 2 to Last Observed Stage 3: 0 Number (%) of Subjects
  Excoriated/Crusts PAS Category Shift: Baseline Stage 2 to Last Observed Stage 4: 0 Number (%) of Subjects
  Excoriated/Crusts PAS Category Shift: Baseline Stage 3 to Last Observed Stage 0: 0 Number (%) of Subjects
  Excoriated/Crusts PAS Category Shift: Baseline Stage 3 to Last Observed Stage 1: 0 Number (%) of Subjects
  Excoriated/Crusts PAS Category Shift: Baseline Stage 3 to Last Observed Stage 2: 2 (14.3%) Number (%) of Subjects
  Excoriated/Crusts PAS Category Shift: Baseline Stage 3 to Last Observed Stage 3: 1 (7.1%) Number (%) of Subjects
  Excoriated/Crusts PAS Category Shift: Baseline Stage 3 to Last Observed Stage 4: 0 Number (%) of Subjects
  Excoriated/Crusts PAS Category Shift: Baseline Stage 4 to Last Observed Stage 0: 1 (7.1%) Number (%) of Subjects
  Excoriated/Crusts PAS Category Shift: Baseline Stage 4 to Last Observed Stage 1: 1 (7.1%) Number (%) of Subjects
  Excoriated/Crusts PAS Category Shift: Baseline Stage 4 to Last Observed Stage 2: 0 Number (%) of Subjects
  Excoriated/Crusts PAS Category Shift: Baseline Stage 4 to Last Observed Stage 3: 0 Number (%) of Subjects
  Excoriated/Crusts PAS Category Shift: Baseline Stage 4 to Last Observed Stage 4: 1 (7.1%) Number (%) of Subjects
  Excoriated/Crusts PAS: Last Observed PAS Result Stage 0: 2 (14.3) Number (%) of Subjects
  Excoriated/Crusts PAS: Last Observed PAS Result Stage 1: 7 (50.0) Number (%) of Subjects
  Excoriated/Crusts PAS: Last Observed PAS Result Stage 2: 2 (14.3) Number (%) of Subjects
  Excoriated/Crusts PAS: Last Observed PAS Result Stage 3: 1 (7.1) Number (%) of Subjects
  Excoriated/Crusts PAS: Last Observed PAS Result Stage 4: 2 (14.3) Number (%) of Subjects
